According to patent publication US20200383985A1, “Inhibitors of Protease Activated Receptor-2” (Endosome Therapeutics, Inc., priority 2017, published 2020):
Like-named read-outs stand apart in the source and are kept apart here.

Experiments:
Assay type in all cases: cell-based
mouse DRG neurons = experiment: Patch clamp rheobase of DRG neurons: protease-induced hyperexcitability of nociceptors; settings: for basal excitability of DRG neurons / initial hyperexcitability (0 min) caused by trypsin, NE or CS / persistent effects (30 min) of NE or CS on rheobase / persistent effects (30 min) of trypsin on rheobase: Dy4 30 μM, PS2 15 μM; for rheobase after protease: trypsin 50 nM 10 min, NE 390 nM 30 min, CS 500 nM 60 min, thrombin 50 nM 20 min, washed
mPAR2-GFP = target: T1, mPAR2-GFP (Mus musculus, UniProt P55086); experiment: PAR2 trafficking (endocytosis) in DRG neurons; settings: for mPAR2-GFP endocytosis: protease 100 nM, 30 min
T1 construct: expressed in transfected cells; host or cells: mouse (C57BL/6) DRG neurons, nucleofection
T1 sequence (P55086 26-399): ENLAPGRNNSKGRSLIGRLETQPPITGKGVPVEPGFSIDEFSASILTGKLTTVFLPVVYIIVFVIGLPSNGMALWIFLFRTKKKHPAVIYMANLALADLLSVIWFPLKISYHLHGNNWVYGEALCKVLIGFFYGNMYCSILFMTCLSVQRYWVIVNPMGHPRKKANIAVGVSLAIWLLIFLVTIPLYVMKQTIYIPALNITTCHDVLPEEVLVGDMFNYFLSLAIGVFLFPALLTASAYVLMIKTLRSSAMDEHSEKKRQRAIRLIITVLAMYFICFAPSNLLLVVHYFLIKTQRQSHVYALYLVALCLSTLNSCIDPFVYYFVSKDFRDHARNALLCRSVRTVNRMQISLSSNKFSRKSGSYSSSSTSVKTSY
Procedure: To assess endocytosis of PAR2 in nociceptors, mouse (m) PAR2-GFP was transfected in to mouse DRG neurons. In vehicle-treated neurons, mPAR2-GFP was detected at the plasma membrane and in intracellular compartments that may correspond to stores of PAR2 in the Golgi apparatus (FIG. 4A) (Jensen D. D., et al. J Biol Chem. 2016, 291(21): 11285-11299). Trypsin, but not NE or CS (100 nM, 30 min), induced mPAR2-GFP endocytosis (FIG. 4A, B). Dy4, but not Dy4 inact, inhibited trypsin-induced endocytosis of mPAR2-GFP (FIG. 4C). To determine whether PAR2 recruits βARRs, which mediate endocytosis, Bioluminescence Resonance Energy Transfer (BRET) sensors were expressed for PAR2-RLuc8 (donor) and βARR2-YFP (acceptor) in mouse DRG neurons. Trypsin, but not NE or CS, increased PAR2-RLuc8/βARR2-YFP BRET (FIG. 4D).
DRG were collected from C57BL/6 mice and Sprague-Dawley rats (all levels). DRG were incubated with collagenase IV (2 mg/ml) and dispase II (1 mg/ml) for 30 min (mice) and 45 min (rats) at 37° C. DRG were dispersed by trituration with a fire-polished Pasteur pipette. Dissociated neurons were transfected with mPAR2-GFP (1 μg), the FRET biosensors CytoEKAR, NucEKAR, pmCKAR or CytoCKAR (all […]), or with the BRET biosensors PAR2-RLuc8 (125 ng) and βARR2-FYP (475 ng) using the Lonza 4D-Nucleofector X unit according to the manufacturer's instructions. […]
Mouse DRG neurons expressing mPAR2-GFP were incubated with trypsin (10 nM), CS (100 nM), NE (100 nM) or vehicle (30 min, 37° C.), and were fixed (4% paraformaldehyde, 20 min, 4C). NeuN was detected by indirect immunofluorescence as described (Jensen, D. D. et al., Sci Transl Med. 2017, 9(392), eaal3447). […] PAR2 internalization in NeuN-positive neurons was quantified using ImageJ software. The border of the cytoplasm in the neuronal soma was defined by NeuN fluorescence. mPAR2-GFP fluorescence within 0.5 μm of the border was defined as plasma membrane-associated receptor. The ratio of plasma membrane to cytosolic mPAR2-GFP was determined.

PAR2-RLuc8 = target: T2, PAR2-RLuc8 (Homo sapiens, UniProt P55085); experiment: BRET assays of PAR2 endocytosis in HEK293 cells; settings: for EC50: HEK293 cells
T2 construct: expressed in transfected cells; host or cells: HEK293, transient transfection with PEI
T2 sequence (P55085 26-397): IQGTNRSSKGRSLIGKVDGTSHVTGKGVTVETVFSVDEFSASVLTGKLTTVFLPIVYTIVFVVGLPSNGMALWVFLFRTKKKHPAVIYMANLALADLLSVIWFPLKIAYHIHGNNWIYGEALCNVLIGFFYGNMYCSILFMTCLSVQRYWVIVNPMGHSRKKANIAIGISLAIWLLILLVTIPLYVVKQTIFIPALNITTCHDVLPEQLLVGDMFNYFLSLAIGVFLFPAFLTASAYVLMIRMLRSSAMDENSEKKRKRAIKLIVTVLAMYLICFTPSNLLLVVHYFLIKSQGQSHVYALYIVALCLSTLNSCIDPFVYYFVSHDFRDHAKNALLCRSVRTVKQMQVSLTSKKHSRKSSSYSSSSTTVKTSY

Row | Compound | mPAR2-GFP endocytosis (mPAR2-GFP) | basal excitability of DRG neurons (mouse DRG neurons) | initial hyperexcitability (0 min) caused by trypsin, NE or CS (mouse DRG neurons) | persistent effects (30 min) of NE or CS on rheobase (mouse DRG neurons) | persistent effects (30 min) of trypsin on rheobase (mouse DRG neurons) | rheobase after protease (mouse DRG neurons) | further results
1 | Cc1nc(C(=O)N2CCN(C(=O)c3cn4nc(-c5ccc(F)cc5)cc(C(C)(C)C)c4n3)C(C)(C)C2)n[nH]1 [Compound I-343, (8-(tert-butyl)-6-(4-fluorophenyl)imidazo[1,2-b]pyridazin-2-yl)(2,2-dimethyl-4-(5-methyl-1H-1,2,4-triazole-3-carbonyl)piperazin-1-yl)methanone] | – | – | – | – | – | – | decrease in rheobase 0 min after NE (mouse DRG neurons): prevented; decrease in rheobase 0 min after trypsin (mouse DRG neurons; 100 nM, 300 nM): prevented; decrease in rheobase 30 min after CS (mouse DRG neurons; 10 μM): prevented; decrease in rheobase 30 min after NE (mouse DRG neurons; 10 μM): not; decrease in rheobase 30 min after trypsin (mouse DRG neurons; 10 μM): prevented
2 | O=C(N/N=C/c1cc(O)c(O)cc1O)c1cc2ccccc2cc1O [Dy4] | – | did not affect | did not affect | not | abolished | – | trypsin-induced endocytosis of mPAR2-GFP (mPAR2-GFP; preincubated with Dy4 or Dy4 inact): inhibited
3 | O=C1NC(=NS(=O)(=O)c2cccc3ccccc23)S/C1=C\c1ccc(Br)cc1 [PS2] | – | did not affect | did not affect | not | abolished | – | trypsin-induced decrease in PAR2-RLuc8/RIT-Venus BRET and increase in PAR2-RLuc8/Rab5a-Venus BRET (PAR2-RLuc8; PS2 or PS2 inact): suppressed
4 | NE: protease (elastase) activating PAR2 by biased mechanisms | not | – | – | – | – | decreased rheobase at 0 and 30 min | PAR2-RLuc8/RIT-Venus or Rab5a-Venus BRET (PAR2-RLuc8; 100 nM): Neither NE nor CS (100 nM) affected
5 | trypsin | induced | – | – | – | – | decreased rheobase at 0 and 30 min | EC50 (PAR2-RLuc8; read-out: EC50, decrease in PAR2-RLuc8/RIT-Venus BRET): 2.9 nM; EC50 (PAR2-RLuc8; read-out: EC50, increase in PAR2-RLuc8/Rab5a-Venus BRET): 2.7 nM; PAR2-RLuc8/Rab5a-Venus BRET after 60 min (PAR2-RLuc8; compared to HC supernatant, trypsin 10 nM positive control): increased
